Source: US10669268B2, “Bicyclic derivatives” (Hoffmann-La Roche Inc., priority 2012, dated 2020)
pIC50: −log10 of the molar value.

These compounds were tested against ATX (human His-tagged) (Homo sapiens (Human), UniProt Q13822) (assay: Human ATX enzyme inhibition assay (fluorescence quenching, MR121 substrate)). Conditions: 30 nM ATX, 1 μM MR121 substrate, 30° C., pH 8.0.
Type: biochemical
Method in brief: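 Tris-HCl buffer at pH 8.0 contained 140 mM NaCl, 5 mM KCl, 1 mM each CaCl2 and MgCl2, and 0.01% Triton X-100. The MR121 substrate (1 μM final) was incubated with enzyme for 15 min at 30 °C, and activity was read by fluorescence quenching.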

pIC50	Structure (SMILES)
7.72	O=C(/C=C/c1ccc(-c2ccccn2)cc1)N1C[C@@H]2CN(C(=O)c3ccc4[nH]nnc4c3)C[C@H]2C1 [Example 15.81, (E)-1-[(3aR,6aR)-5-(1H-benzotriazole-5-carbonyl)-hexahydro-pyrrolo[3,4-c]pyrrol-2-yl]-3-(4-pyridin-2-yl-phenyl)-prop-2-en-1-one]
7.80	COc1cc(Cl)cc(/C=C/C(=O)N2C[C@@H]3CN(C(=O)c4ccc5[nH]nnc5c4)C[C@H]3C2)c1 [Example 15.49]
5.80	O=C(/C=C/c1ccc(OC(F)(F)F)cc1)N1C[C@@H]2CN(C(=O)NCc3c[nH]nn3)C[C@@H]2C1 [Example 9.02]
8.30	O=C(/C=C/c1ccc(OC(F)(F)F)c(Cl)c1)N1C[C@H]2CCN(C(=O)c3ccc4[nH]nnc4c3)C[C@@H]2C1 [Example 15.75]
6.91	O=C(OCc1ccc(F)c(OC(F)(F)F)c1)N1C[C@@H]2CN(C(=O)c3ccc4[nH]nnc4c3)C[C@@H]2C1 [Example 4.28, (3aS,6aR)-5-(1H-benzotriazole-5-carbonyl)-hexahydro-pyrrolo[3,4-c]pyrrole-2-carboxylic acid 4-fluoro-3-trifluoromethoxy-benzyl ester]
8.22	CC(C)c1cc(Cl)ccc1OCC(=O)N1C[C@@H]2CN(C(=O)c3ccc4[nH]nnc4c3)C[C@H]2C1 [Example 19.10, 1-[(3aS,6aS)-5-(1H-benzotriazole-5-carbonyl)-hexahydro-pyrrolo[3,4-c]pyrrol-2-yl]-2-(4-chloro-2-isopropyl-phenoxy)-ethanone]
7.00	CN(Cc1cnn[nH]1)C(=O)N1C[C@H]2CCN(C(=O)CCc3ccc(OC(F)(F)F)c(F)c3)CC[C@H]2C1 [Example 17.02, (3aR,8aS)-N-((1H-1,2,3-triazol-5-yl)methyl)-6-(3-(3-fluoro-4-(trifluoromethoxy)phenyl)-propanoyl)-N-methyloctahydropyrrolo[3,4-d]azepine-2(1H)-carboxamide]
6.15	O=C(/C=C/c1ccc(OC(F)(F)F)cc1)N1CC[C@@H]2CN(C(=O)NCc3cnn[nH]3)C[C@@H]2CC1 [Example 9, (3aR,8aS)—N-((1H-1,2,3-Triazol-5-yl)methyl)-6-((E)-3-(4-(trifluoromethoxy)phenyl)-acryloyl)octahydropyrrolo[3,4-d]azepine-2(1H)-carboxamide]
8.70	O=C(/C=C/c1cc(Cl)cc(Cl)c1)N1CC[C@@H]2CN(C(=O)c3ccc4[nH]nnc4c3)C[C@@H]2CC1 [Example 15.27]
7.03	O=C(/C=C/c1ccc(OC(F)(F)F)cc1)N1CC[C@H]2CN(C(=O)c3ccc4[nH]nnc4c3)C[C@H]2C1 [Example 15.37]
7.92	O=C(c1ccc2[nH]nnc2c1)N1C[C@H]2CN(C(=O)c3cc4cc(OC(F)(F)F)ccc4[nH]3)C[C@@H]2C1 [Example 15.99]
7.77	O=C(/C=C/c1ccc(Cl)cc1F)N1C[C@@H]2CN(C(=O)c3ccc4[nH]nnc4c3)C[C@H]2C1 [Example 15.41]
7.96	O=C(OCc1cc(Cl)cc(Cl)c1)N1C[C@H]2CN(C(=O)c3ccc4[nH]nnc4c3)C[C@@H]2C1 [Example 4.02, (3aR,6aR)-3,5-dichlorobenzyl 5-(1H-benzo[d][1,2,3]triazole-5-carbonyl)hexahydropyrrolo[3,4-c]pyrrole-2(1H)-carboxylate]
7.13	CN(Cc1cnn[nH]1)C(=O)N1C[C@H]2CCN(C(=O)/C=C/c3ccc(OC(F)(F)F)cc3)CC[C@H]2C1 [Example 9.07, (3aR,8aS)-N-((1H-1,2,3-triazol-5-yl)methyl)-N-methyl-6-((E)-3-(4-(trifluoromethoxy)phenyl)-acryloyl)octahydro-pyrrolo[3,4-d]azepine-2(1H)-carboxamide]
7.72	CC(C)c1ccccc1OCC(=O)N1C[C@@H]2CN(C(=O)c3ccc4[nH]nnc4c3)C[C@H]2C1 [Example 15.86]
7.38	O=C(/C=C/c1ccc(OC(F)(F)F)c(F)c1)N1CC[C@@H]2CN(C(=O)NCc3cnn[nH]3)C[C@@H]2CC1 [Example 9.03]
8.00	O=C(OCc1cc(Cl)cc(Cl)c1)N1CC[C@@H]2CN(C(=O)c3ccc4[nH]c(=O)oc4c3)C[C@H]2C1 (relative stereo) [Example 2, trans-3,5-Dichlorobenzyl 2-(2-oxo-2,3-dihydrobenzo[d]oxazole-6-carbonyl)hexahydro-1H-pyrrolo[3,4-c]pyridine-5(6H)-carboxylate]

pIC50	Structure (SMILES)
8.05	CC(C)c1ccccc1/C=C/C(=O)N1CC[C@@H]2CN(C(=O)c3ccc4[nH]nnc4c3)C[C@@H]2CC1 [Example 1.22, (E)-1-[(3aS,8aR)-2-(1H-benzotriazole-5-carbonyl)-octahydro-pyrrolo[3,4-d]azepin-6-yl]-3-(2-isopropyl-phenyl)-prop-2-en-1-one]
8.00	Cc1cc(OCC(=O)N2CC[C@@H]3CN(C(=O)c4ccc5[nH]nnc5c4)C[C@@H]3CC2)c(C(C)C)cc1Cl [Example 1.35, 1-[(3aS,8aR)-2-(1H-benzotriazole-5-carbonyl)-octahydro-pyrrolo[3,4-d]azepin-6-yl]-2-(4-chloro-2-isopropyl-5-methyl-phenoxy)-ethanone]
8.40	O=C(OCc1cc(Cl)cc(Cl)c1)N1CC[C@@H]2CN(C(=O)c3ccc4[nH]nnc4c3)C[C@@H]2CC1 [Example 1.11, (3aR,8aS)-3,5-dichlorobenzyl 2-(1H-benzo[d][1,2,3]triazole-5-carbonyl)octahydropyrrolo[3,4-d]azepine-6(7H)-carboxylate]
8.22	COc1ccc(/C=C/C(=O)N2CC[C@@H]3CN(C(=O)c4ccc5[nH]nnc5c4)C[C@@H]3CC2)c(C(F)(F)F)c1 [Example 1.28, (E)-1-((3aR,8aS)-2-(1H-benzo[d][1,2,3]triazole-5-carbonyl)octahydropyrrolo[3,4-d]azepin-6(7H)-yl)-3-(4-methoxy-2-(trifluoromethyl)phenyl)prop-2-en-1-one]
7.62	O=C(OCc1ccc(OC(F)(F)C(F)F)cc1)N1C[C@@H]2CN(C(=O)c3ccc4[nH]nnc4c3)C[C@H]2C1 [Example 4.38, (3aS,6aS)-5-(1H-benzotriazole-5-carbonyl)-hexahydro-pyrrolo[3,4-c]pyrrole-2-carboxylic acid 4-(1,1,2,2-tetrafluoro-ethoxy)-benzyl ester]
7.47	O=C(/C=C/c1ccc(F)cc1F)N1CC[C@@H]2CN(C(=O)c3ccc4[nH]nnc4c3)C[C@@H]2CC1 [Example 15.29]
7.85	O=C(OCc1ccc(OC(F)(F)F)cc1)N1C[C@@H]2CN(C(=O)N3CCc4[nH]nnc4C3)C[C@H]2C1 [Example 4.54, (3aS,6aS)-5-(1,4,6,7-tetrahydro-[1,2,3]triazolo[4,5-c]pyridine-5-carbonyl)-hexahydro-pyrrolo[3,4-c]pyrrole-2-carboxylic acid 4-trifluoromethoxy-benzyl ester]
6.55	O=C(CCc1cc(Cl)cc(Cl)c1)N1C[C@H]2CN(Cc3ccc4[nH]c(=O)oc4c3)C[C@H]2C1 [Example 6.04]
7.82	O=C(/C=C/c1ccc([S+]([O-])C(F)(F)F)cc1)N1CC[C@@H]2CN(C(=O)c3ccc4[nH]nnc4c3)C[C@@H]2CC1 (stereo partly drawn) [Example 16, (E)-1-((3aR,8aS)-2-(1H-benzo[d][1,2,3]triazole-5-carbonyl)octahydropyrrolo[3,4-d]azepin-6(7H)-yl)-3-(4-(trifluoromethylsulfinyl)phenyl)prop-2-en-1-one]
7.21	O=C(/C=C/c1ccc(F)cc1)N1CC[C@@H]2CN(C(=O)c3ccc4[nH]nnc4c3)C[C@@H]2CC1 [Example 15.14]
7.96	CS(=O)(=O)c1cc(COC(=O)N2CC[C@@H]3CN(C(=O)c4ccc5[nH]nnc5c4)C[C@@H]3CC2)cc(C(F)(F)F)c1 [Example 4.05, (3aS,8aR)-2-(1H-benzotriazole-5-carbonyl)-octahydro-pyrrolo[3,4-d]azepine-6-carboxylic acid 3-methanesulfonyl-5-trifluoromethyl-benzyl ester]
8.10	O=C(CCc1ccc(OC(F)(F)F)cc1F)N1C[C@@H]2CN(C(=O)c3ccc4[nH]nnc4c3)C[C@H]2C1 [Example 17.04, 1-[(3aR,6aR)-5-(1H-benzotriazole-5-carbonyl)-hexahydro-pyrrolo[3,4-c]pyrrol-2-yl]-3-(2-fluoro-4-trifluoromethoxy-phenyl)-propan-1-one]
7.80	O=C(OCc1ccc(OC(F)(F)F)c(F)c1)N1C[C@@H]2CN(C(=O)c3ccc4[nH]nnc4n3)C[C@H]2C1 [Example 4.40, (3aS,6aS)-5-(1H-[1,2,3]triazolo[4,5-b]pyridine-5-carbonyl)-hexahydro-pyrrolo[3,4-c]pyrrole-2-carboxylic acid 3-fluoro-4-trifluoromethoxy-benzyl ester]
8.15	O=C(/C=C/c1ccc(OC(F)(F)F)cc1)N1CC[C@@H]2CN(C(=O)c3ccc4[nH]nnc4c3)C[C@@H]2CC1 [Example 15.70]
8.00	Cc1cc(OC(F)(F)F)ccc1CCC(=O)N1CC[C@@H]2CN(C(=O)c3ccc4[nH]nnc4c3)C[C@@H]2CC1 [Example 17.06, 1-((3aR,8aS)-2-(1H-benzo[d][1,2,3]triazole-5-carbonyl)octahydropyrrolo[3,4-d]azepin-6(7H)-yl)-3-(2-methyl-4-(trifluoromethoxy)phenyl)-propan-1-one]
8.30	Cc1cc(COC(=O)N2C[C@@H]3CN(C(=O)c4ccc5[nH]nnc5c4)C[C@H]3C2)c(C(C)C)cc1C#N [Example 4.53, (3aS,6aS)-5-(1H-benzotriazole-5-carbonyl)-hexahydro-pyrrolo[3,4-c]pyrrole-2-carboxylic acid 4-cyano-2-isopropyl-5-methyl-benzyl ester]
